Results from EP0588799B1, “NEW SULPHONAMIDES, PROCESS FOR PREPARING THE SAME AND MEDICAMENTS CONTAINING THESE COMPOUNDS” (BOEHRINGER MANNHEIM GMBH, priority 1991, dated 1992).

Experiments:
Plasma-LDL = experiment: Stabilisation of plasma LDL: prolongation of the lag phase of Cu(II)-induced oxidation (diene formation at A 234); type: biochemical, human; details: for Stabilisierung v. Plasma LDL: Verlängerung der "lag-Phase": 3 molecules test substance per LDL particle, LDL 125 µg protein/ml, 10 µM CuCl2, pH 8, 42° C
Description: Stabilisierung von Plasma-LDL (nach Huber et al. (1990) Free Rad. Res. Comms. 8, 167-173)
LDL (125 µg Protein/ml) wurde in 20 mM Tris-Cl pH 8, 150 mM NaCl, 10 µM CuCl2 mit und ohne Testverbindung (gelöst in Äthanol, Äthanolendkonzentration 0,5 %) bei 42° C oxidiert. Es wurden jeweils 3 Moleküle Testsubstanz pro LDL-Partikel eingesetzt. Die Oxidation wurde kontinuierlich photometrisch bei A 234 durch die Messung der Dienbildung verfolgt. Die sogenannte "lag Phase" ist als dasjenige Zeitintervall definiert, das sich aus dem Schnittpunkt der Tangente der Kurve während der Propagationsreaktion der Lipidperoxidation und der Zeitachse ergibt.

P 388 D.1 Makrophagen = experiment: Inhibition of cholesterol ester formation in macrophages (after Huber et al.); type: cell-based; details: P 388 D.1 macrophages; for Hemmung der Cholesterinesterbildung in Macro- (P388D.1): 18 h incubation, F-10 medium + 1 µM Cu(II) + 50 µg/ml LDL + 5 % FCS, test concentration not given
Description: Hemmung der Cholesterinesterbildung in Makrophagen (nach Huber et al. (1990) Free Rad. Res. Comms. 8, 167-173)
Humanplasma-LDL wurde durch sequentielle Ultrazentrifugation bei präselekierten Dichten aus dem Plasma gesunder männlicher Nichtraucher isoliert und für 5 h bei 37° C in F-10 Medium + 1µM Cu(II) zur Depletion seiner lipophilen Antioxidantien inkubiert. Die Bildung von Cholesterinestern in P 388 D.1 Makrophagen unter Einfluß von konditioniertem human Plasma-LDL wurde nach 18 h Inkubation der Zellen (2 x 10^6/ml) in F-10 Medium + 1 µM Cu(II) + 50 µg/ml LDL + 5 % FCS nach Extraktion der Neutral fette dünnschichtchromatographisch gemessen.

SMILES	Stabilisierung v. Plasma LDL: Verlängerung der "lag-Phase" (Plasma-LDL)	Hemmung der Cholesterinesterbildung in Macro- (P388D.1) (P 388 D.1 Makrophagen)	verlängern die lag-Phase von LDL (Plasma-LDL; reference substance, 3 molecules/LDL particle) [%]	Hemmung der Chol-ester-bildung (P 388 D.1 Makrophagen; reference substance, 10 /uM, n=7)
CC(C)(C)c1cc(S(=O)(=O)NCc2ccccc2)cc(C(C)(C)C)c1O [1b).2, (3,5-Di-^tbutyl-4-hydroxy)benzolsulfo-benzylamid]	8	-73,0	–	–
Cc1cc(C(C)(C)C)c(O)c(S(=O)(=O)NCc2ccccc2)c1 [Beispiel 2.2, (3-^tButyl-2-hydroxy-5-methyl)benzolsulfo-benzylamid]	–	-64.1	–	–
CC(C)(C)c1cc(NS(=O)(=O)c2cc(C(C)(C)C)c(O)c(C(C)(C)C)c2)cc(C(C)(C)C)c1O [Beispiel 3.10]	–	-77.4	–	–
CC(C)(C)c1cc(CNS(=O)(=O)c2cc(C(C)(C)C)c(O)c(C(C)(C)C)c2)cc(C(C)(C)C)c1O [Beispiel 3.11]	79	-66.7	–	–
CC(C)(C)c1cc(CCNS(=O)(=O)c2cc(C(C)(C)C)c(O)c(C(C)(C)C)c2)cc(C(C)(C)C)c1O [Beispiel 3.12]	–	-63.4	–	–
CC(C)(C)c1cc(CCCNS(=O)(=O)c2cc(C(C)(C)C)c(O)c(C(C)(C)C)c2)cc(C(C)(C)C)c1O [Beispiel 3.13]	–	-72.6	–	–
CC(C)(Sc1cc(C(C)(C)C)c(O)c(C(C)(C)C)c1)Sc1cc(C(C)(C)C)c(O)c(C(C)(C)C)c1 [Probucol, reference compound]	–	–	10	25-42%
